{"source": "EPA's ToxRefDB 2", "key": {"rat [1]": {"test_system": "rat", "settings": "Subchronic oral toxicity in rodents, sprague dawley, Feed, dose end: 13 week, group: systemic, systemic / clinical chemistry / aspartate aminotransferase (ast/sgot) / aspartate aminotransferase (ast/sgot) + systemic / clinical …"}, "rat [2]": {"test_system": "rat", "settings": "Combined chronic toxicity/carcinogenicity, sprague dawley, Oral, Feed, dose end: 2 year, group: systemic"}, "rat [3]": {"test_system": "rat", "settings": "Multigenerational reproductive toxicity study, sprague dawley, Oral, Feed, dose end: 2 generation"}, "rat [4]": {"test_system": "rat", "settings": "Combined chronic toxicity/carcinogenicity, sprague dawley, Oral, Feed, dose end: 2 year, group: systemic", "remark": "listed apart in the source"}, "mouse [5]": {"test_system": "mouse", "settings": "Combined chronic toxicity/carcinogenicity, cd1, Oral, Feed, dose end: 18 month, group: systemic"}, "dog [6]": {"test_system": "dog", "settings": "Subchronic oral toxicity in nonrodent, beagle, Capsule, dose end: 93 day, group: systemic"}, "rat [7]": {"test_system": "rat", "settings": "Prenatal developmental toxicity study, sprague dawley, Oral, Gavage/Intubation, dose end: 15 GD"}, "rat [8]": {"test_system": "rat", "settings": "Combined chronic toxicity/carcinogenicity, fischer, Oral, Feed, dose end: 104 week, group: systemic"}, "dog [9]": {"test_system": "dog", "settings": "Chronic toxicity; beagle; Oral; Capsule; dose end: 52 week; group: systemic; systemic / in life observation / clinical signs / defecation (diarrhea) + systemic / in life observation / clinical signs / vomitting + …"}, "mouse [10]": {"test_system": "mouse", "settings": "Carcinogenicity, cd1, Oral, Feed, dose end: 78 week, group: systemic"}, "rat [11]": {"test_system": "rat", "settings": "Subchronic oral toxicity in rodents, fischer, Feed, dose end: 90 day, group: systemic"}, "[12]": {"settings": "systemic / organ weight / liver / relative to body weight + systemic / organ weight / thyroid gland / absolute + systemic / pathology gross…"}, "[13]": {"settings": "group: offspring, systemic / in life observation / body weight / offspring (pup) weight"}, "[14]": {"settings": "group: parental, systemic / in life observation / body weight / body weight gain + systemic / in life observation / food consumption / food consumption + …"}, "[15]": {"settings": "group: reproductive, reproductive / offspring survival early / litter size / litter size"}, "[16]": {"settings": "systemic / organ weight / liver / relative to body weight"}, "[17]": {"settings": "systemic / organ weight / liver / relative to body weight + systemic / clinical chemistry / cholesterol / cholesterol"}, "[18]": {"settings": "systemic / in life observation / clinical signs / amyloidosis + systemic / organ weight / brain / relative to brain weight + systemic / …"}, "[19]": {"settings": "systemic / organ weight / liver / relative to brain weight + systemic / organ weight / gallbladder / relative to brain weight"}, "[20]": {"settings": "systemic / in life observation / clinical signs / defecation (diarrhea) + systemic / in life observation / clinical signs / vomitting + …"}, "[21]": {"settings": "group: developmental, developmental / developmental malformation / bone / full supernumerary"}, "[22]": {"settings": "group: maternal, systemic / in life observation / body weight / body weight gain + systemic / in life observation / water consumption / water consumption"}, "[23]": {"settings": "group: maternal, systemic / in life observation / body weight / body weight gain + systemic / in life observation / water consumption / water consumption + …"}, "[24]": {"settings": "systemic / clinical chemistry / creatine phosphokinase / creatine phosphokinase + systemic / organ weight / liver / absolute + systemic / …"}, "[25]": {"settings": "systemic / pathology microscopic / stomach / dysplasia"}, "[26]": {"settings": "systemic / in life observation / body weight / body weight gain + systemic / organ weight / brain / relative to body weight + systemic / …"}, "[27]": {"settings": "systemic / organ weight / liver / relative to body weight + systemic / clinical chemistry / beta globulin / beta globulin + systemic / …"}}}
{"smiles": "CCC(CC)Nc1c([N+](=O)[O-])cc(C)c(C)c1[N+](=O)[O-]", "note": "[Pendimethalin]", "values": [{"measurement": "LEL", "setting": "rat [1]", "result": 7.6, "unit": "mg/kg/day"}, {"measurement": "LOAEL", "setting": "rat [1]", "result": 382, "unit": "mg/kg/day"}, {"measurement": "NEL", "setting": "rat [1]", "result": "< 7.6", "unit": "mg/kg/day"}, {"measurement": "NOAEL", "setting": "rat [1]", "result": 39.2, "unit": "mg/kg/day"}, {"measurement": "LEL", "setting": "rat [2]; systemic / in life observation / body weight / body weight gain + systemic / pathology gross / liver / accentuated lobular pattern", "result": 25, "unit": "mg/kg/day"}, {"measurement": "LOAEL", "setting": "rat [2]; [12]", "result": "> 250", "unit": "mg/kg/day"}, {"measurement": "NOAEL", "setting": "rat [2]; [12]", "result": "≥ 250", "unit": "mg/kg/day"}, {"measurement": "NEL", "setting": "rat [2]; systemic / pathology microscopic / thyroid gland / adenoma + systemic / clinical chemistry / albumin / albumin + systemic / clinical …", "result": 5, "unit": "mg/kg/day"}, {"measurement": "LEL", "setting": "rat [3]; [13]", "result": 215, "unit": "mg/kg/day"}, {"measurement": "LOAEL", "setting": "rat [3]; [13]", "result": 215, "unit": "mg/kg/day"}, {"measurement": "NEL", "setting": "rat [3]; [13]", "result": 42, "unit": "mg/kg/day"}, {"measurement": "NOAEL", "setting": "rat [3]; [13]", "result": 42, "unit": "mg/kg/day"}, {"measurement": "LEL", "setting": "rat [3]; [14]", "result": 173, "unit": "mg/kg/day"}, {"measurement": "LOAEL", "setting": "rat [3]; [14]", "result": 173, "unit": "mg/kg/day"}, {"measurement": "NEL", "setting": "rat [3]; [14]", "result": 36, "unit": "mg/kg/day"}, {"measurement": "NOAEL", "setting": "rat [3]; [14]", "result": 36, "unit": "mg/kg/day"}, {"measurement": "LEL", "setting": "rat [3]; [15]", "result": 215, "unit": "mg/kg/day"}, {"measurement": "LOAEL", "setting": "rat [3]; [15]", "result": 215, "unit": "mg/kg/day"}, {"measurement": "NEL", "setting": "rat [3]; [15]", "result": 42, "unit": "mg/kg/day"}, {"measurement": "NOAEL", "setting": "rat [3]; [15]", "result": 42, "unit": "mg/kg/day"}, {"measurement": "LOAEL", "setting": "rat [4]; [16]", "result": 51, "unit": "mg/kg/day"}, {"measurement": "NOAEL", "setting": "rat [4]; [16]", "result": "< 51", "unit": "mg/kg/day"}, {"measurement": "LEL", "setting": "rat [4]; [17]", "result": 51, "unit": "mg/kg/day"}, {"measurement": "NEL", "setting": "rat [4]; [17]", "result": "< 51", "unit": "mg/kg/day"}, {"measurement": "LOAEL", "setting": "mouse [5]; [18]", "result": 622, "unit": "mg/kg/day"}, {"measurement": "NOAEL", "setting": "mouse [5]; [18]", "result": 62.3, "unit": "mg/kg/day"}, {"measurement": "LEL", "setting": "mouse [5]; [19]", "result": 12.3, "unit": "mg/kg/day"}, {"measurement": "NEL", "setting": "mouse [5]; [19]", "result": "< 12.3", "unit": "mg/kg/day"}]}
{"smiles": "CCc1nn(C)c(C(=O)NCc2ccc(C(C)(C)C)cc2)c1Cl", "note": "[Tebufenpyrad]", "values": [{"measurement": "LOAEL", "setting": "dog [6]; systemic / in life observation / clinical signs / defecation (diarrhea) + systemic / in life observation / clinical signs / vomitting", "result": 10, "unit": "mg/kg/day"}, {"measurement": "LEL", "setting": "dog [6]; [20]", "result": 10, "unit": "mg/kg/day"}, {"measurement": "NEL", "setting": "dog [6]; [20]", "result": 2, "unit": "mg/kg/day"}, {"measurement": "NOAEL", "setting": "dog [6]; [20]", "result": 2, "unit": "mg/kg/day"}, {"measurement": "LEL", "setting": "rat [7]; [21]", "result": 90, "unit": "mg/kg/day"}, {"measurement": "LOAEL", "setting": "rat [7]; [21]", "result": 90, "unit": "mg/kg/day"}, {"measurement": "NEL", "setting": "rat [7]; [21]", "result": 50, "unit": "mg/kg/day"}, {"measurement": "NOAEL", "setting": "rat [7]; [21]", "result": 50, "unit": "mg/kg/day"}, {"measurement": "LEL", "setting": "rat [7]; [22]", "result": 50, "unit": "mg/kg/day"}, {"measurement": "LOAEL", "setting": "rat [7]; [22]", "result": 50, "unit": "mg/kg/day"}, {"measurement": "NEL", "setting": "rat [7]; [23]", "result": 15, "unit": "mg/kg/day"}, {"measurement": "NOAEL", "setting": "rat [7]; [23]", "result": 15, "unit": "mg/kg/day"}, {"measurement": "LEL", "setting": "rat [8]; [24]", "result": 0.21, "unit": "mg/kg/day"}, {"measurement": "NEL", "setting": "rat [8]; [24]", "result": "< 0.21", "unit": "mg/kg/day"}, {"measurement": "NOAEL", "setting": "rat [8]; [24]", "result": 0.82, "unit": "mg/kg/day"}, {"measurement": "LOAEL", "setting": "rat [8]; systemic / organ weight / liver / absolute + systemic / organ weight / liver / relative to body weight + systemic / clinical chemistry / …", "result": 6.52, "unit": "mg/kg/day"}, {"measurement": "LEL", "setting": "dog [9]", "result": 6, "unit": "mg/kg/day"}, {"measurement": "LOAEL", "setting": "dog [9]", "result": 6, "unit": "mg/kg/day"}, {"measurement": "NEL", "setting": "dog [9]", "result": 1, "unit": "mg/kg/day"}, {"measurement": "NOAEL", "setting": "dog [9]", "result": 1, "unit": "mg/kg/day"}, {"measurement": "LOAEL", "setting": "mouse [10]; systemic / in life observation / body weight / body weight gain", "result": 64.4, "unit": "mg/kg/day"}, {"measurement": "NOAEL", "setting": "mouse [10]; systemic / in life observation / body weight / body weight gain + systemic / in life observation / body weight / body weight + systemic / …", "result": 3.6, "unit": "mg/kg/day"}, {"measurement": "LEL", "setting": "mouse [10]; [25]", "result": 4.2, "unit": "mg/kg/day"}, {"measurement": "NEL", "setting": "mouse [10]; [25]", "result": "< 4.2", "unit": "mg/kg/day"}, {"measurement": "LOAEL", "setting": "rat [11]; [26]", "result": 29, "unit": "mg/kg/day"}, {"measurement": "NOAEL", "setting": "rat [11]; [26]", "result": 6.8, "unit": "mg/kg/day"}, {"measurement": "LEL", "setting": "rat [11]; [27]", "result": 0.7, "unit": "mg/kg/day"}, {"measurement": "NEL", "setting": "rat [11]; [27]", "result": "< 0.7", "unit": "mg/kg/day"}]}
